System: MV-4-11 cells
Experiment: Gene expression microarray analysis (Affymetrix PrimeView) and GSEA
Format: cell-based, human
Parameters: RFU PODN (11730768_x_at) / Fold change /veh PODN (11730768_x_at) / RFU LINC00158 (11744669_a_at) / Fold change /veh LINC00158 (11744669_a_at) / RFU DUSP10 (11751237_a_at) / Fold change /veh DUSP10 (11751237_a_at) / RFU ID3 (11757404_x_at) / Fold change /veh ID3 (11757404_x_at) / RFU PLEKHG5 (11737974_s_at) / Fold change /veh PLEKHG5 (11737974_s_at) / RFU LRRC4B (11730491_at) / Fold change /veh LRRC4B (11730491_at) / RFU GIMAP4 (11747438_a_at) / Fold change /veh GIMAP4 (11747438_a_at) / RFU KRT8 (11758183_x_at) / Fold change /veh KRT8 (11758183_x_at) / RFU CNN1 (11734310_a_at) / Fold change /veh CNN1 (11734310_a_at) / RFU VPS37D (11726825_at) / Fold change /veh VPS37D (11726825_at) / RFU C10orf10 (11716522_x_at) / Fold change /veh C10orf10 (11716522_x_at) / RFU KIR2DL2 /// KIR2DL4 /// KIR2DL5A /// KIR2DL5B /// KIR2DS1 /// KIR2DS2 /// KIR2DS3 /// KIR2DS4 /// KIR3DL3 /// KIR3DL3 /// KIR3DS1 (11738374_at) / Fold change /veh KIR2DL2 /// KIR2DL4 /// KIR2DL5A /// KIR2DL5B /// KIR2DS1 /// KIR2DS2 /// KIR2DS3 /// KIR2DS4 /// KIR3DL3 /// KIR3DL3 /// KIR3DS1 (11738374_at) / RFU C1QL1 (11718748_at) / Fold change /veh C1QL1 (11718748_at) / RFU TMPRSS4 (11747572_a_at) / Fold change /veh TMPRSS4 (11747572_a_at) / RFU HAMP (11756126_x_at) / Fold change /veh HAMP (11756126_x_at) / RFU RNFT2 (11725882_a_at) / Fold change /veh RNFT2 (11725882_a_at) / RFU NR4A2 (11747474_a_at) / Fold change /veh NR4A2 (11747474_a_at) / RFU ABCC12 (11746883_a_at) / Fold change /veh ABCC12 (11746883_a_at) / RFU TMEM136 (11760407_x_at) / Fold change /veh TMEM136 (11760407_x_at) / RFU CLDN22 /// WWC2 (11732394_at) / Fold change /veh CLDN22 /// WWC2 (11732394_at) / RFU HLA-DPB1 (11760878_x_at) / Fold change /veh HLA-DPB1 (11760878_x_at) / RFU SPINT1 (11716480_a_at) / Fold change /veh SPINT1 (11716480_a_at) / RFU GAP43 (11754022_s_at) / Fold change /veh GAP43 (11754022_s_at) / RFU A4GNT (11735810_at) / Fold change /veh A4GNT (11735810_at) / RFU PRB3 (11715151_x_at) / Fold change /veh PRB3 (11715151_x_at) / RFU TUBB4B (11761932_at) / Fold change /veh TUBB4B (11761932_at) / RFU CAPN14 (11732068_a_at) / Fold change /veh CAPN14 (11732068_a_at) / RFU TMCC2 (11721928_a_at) / Fold change /veh TMCC2 (11721928_a_at) / RFU IRGQ (11745062_a_at) / Fold change /veh IRGQ (11745062_a_at) / RFU FAM174B (11720279_a_at) / Fold change /veh FAM174B (11720279_a_at) / RFU TMPRSS4 (11748680_a_at) / Fold change /veh TMPRSS4 (11748680_a_at) / RFU FAM212B (11763350_a_at) / Fold change /veh FAM212B (11763350_a_at) / RFU PLEKHG5 (11743358_a_at) / Fold change /veh PLEKHG5 (11743358_a_at) / RFU ZSCAN30 (11745921_a_at) / Fold change /veh ZSCAN30 (11745921_a_at) / RFU CMKLR1 (11741424_a_at) / Fold change /veh CMKLR1 (11741424_a_at) / RFU LOC101060620 /// MAPK8IP1 (11723275_at) / Fold change /veh LOC101060620 /// MAPK8IP1 (11723275_at) / RFU SPTSSB (11747773_x_at) / Fold change /veh SPTSSB (11747773_x_at) / RFU PRSS12 (11739890_at) / Fold change /veh PRSS12 (11739890_at) / RFU BIN1 (11741810_x_at) / Fold change /veh BIN1 (11741810_x_at) / RFU WNT11 (11732464_a_at) / Fold change /veh WNT11 (11732464_a_at) / RFU C10orf10 (11716521_a_at) / Fold change /veh C10orf10 (11716521_a_at) / RFU C5orf56 (11738089_at) / Fold change /veh C5orf56 (11738089_at) / RFU CYB561 (11721691_x_at) / Fold change /veh CYB561 (11721691_x_at) / RFU ANKRD19P (11752326_a_at) / Fold change /veh ANKRD19P (11752326_a_at) / RFU OR2T12 /// OR2T33 /// OR2T8 (11738714_s_at) / Fold change /veh OR2T12 /// OR2T33 /// OR2T8 (11738714_s_at) / RFU VCAN (11748164_a_at) / Fold change /veh VCAN (11748164_a_at) / RFU JSRP1 (11732532_at) / Fold change /veh JSRP1 (11732532_at) / RFU KRTAP10-11 (11738290_x_at) / Fold change /veh KRTAP10-11 (11738290_x_at) / RFU MYO3A (11730013_a_at) / Fold change /veh MYO3A (11730013_a_at) / RFU EBF3 (11725865_a_at) / Fold change /veh EBF3 (11725865_a_at) / RFU CAMK2N1 (11719241_x_at) / Fold change /veh CAMK2N1 (11719241_x_at) / RFU C5orf56 (11738088_a_at) / Fold change /veh C5orf56 (11738088_a_at) / RFU OLFML3 (11715873_a_at) / Fold change /veh OLFML3 (11715873_a_at) / RFU LOC100653217 /// NTM (11731650_a_at) / Fold change /veh LOC100653217 /// NTM (11731650_a_at) / RFU MAPK11 (11762145_a_at) / Fold change /veh MAPK11 (11762145_a_at) / RFU FIZ1 (11724087_x_at) / Fold change /veh FIZ1 (11724087_x_at) / RFU OASL (11726364_x_at) / Fold change /veh OASL (11726364_x_at) / RFU SOX15 (11748057_x_at) / Fold change /veh SOX15 (11748057_x_at) / RFU CD79A (11719716_a_at) / Fold change /veh CD79A (11719716_a_at) / RFU HIST1H1D (11736915_at) / Fold change /veh HIST1H1D (11736915_at) / RFU CASKIN2 (11723855_a_at) / Fold change /veh CASKIN2 (11723855_a_at) / RFU LOC730098 (11760151_x_at) / Fold change /veh LOC730098 (11760151_x_at) / RFU OR4N2 (11742367_at) / Fold change /veh OR4N2 (11742367_at) / RFU PRRT2 (11749266_a_at) / Fold change /veh PRRT2 (11749266_a_at) / RFU SNX32 (11753110_a_at) / Fold change /veh SNX32 (11753110_a_at) / RFU CDHR5 (11726645_a_at) / Fold change /veh CDHR5 (11726645_a_at) / RFU RCAN1 (11760418_a_at) / Fold change /veh RCAN1 (11760418_a_at) / RFU FAM167A (11723789_a_at) / Fold change /veh FAM167A (11723789_a_at) / RFU FAM26E (11764081_at) / Fold change /veh FAM26E (11764081_at) / RFU ISYNA1 (11749810_s_at) / Fold change /veh ISYNA1 (11749810_s_at) / RFU ACY1 (11761880_at) / Fold change /veh ACY1 (11761880_at) / RFU 11764098_at / Fold change /veh 11764098_at / RFU SAMD14 (11745864_x_at) / Fold change /veh SAMD14 (11745864_x_at) / RFU NPB (11741838_a_at) / Fold change /veh NPB (11741838_a_at) / RFU TMPRSS6 (11731388_a_at) / Fold change /veh TMPRSS6 (11731388_a_at) / RFU KRTAP10-2 (11738614_at) / Fold change /veh KRTAP10-2 (11738614_at) / RFU ARHGAP8 /// PRR5-ARHGAP8 (11727945_x_at) / Fold change /veh ARHGAP8 /// PRR5-ARHGAP8 (11727945_x_at) / RFU KRTAP5-7 /// NADSYN1 (11734609_at) / Fold change /veh KRTAP5-7 /// NADSYN1 (11734609_at) / RFU RASL12 (11751679_a_at) / Fold change /veh RASL12 (11751679_a_at) / RFU CDKN2B (11736163_a_at) / Fold change /veh CDKN2B (11736163_a_at) / RFU PRF1 (11729649_at) / Fold change /veh PRF1 (11729649_at) / RFU, ZNF638 /// ZNF638-IT1 / Fold change vs veh, ZNF638 /// ZNF638-IT1 / RFU, PANK3 / Fold change vs veh, PANK3 / RFU, SH3YL1 / Fold change vs veh, SH3YL1 / RFU, ZEB2 / Fold change vs veh, ZEB2 / RFU, NRIP1 / Fold change vs veh, NRIP1 / RFU, PTTG1IP / Fold change vs veh, PTTG1IP / RFU, CAPN2 / Fold change vs veh, CAPN2 / RFU, MED14 / Fold change vs veh, MED14 / RFU, SNORA58 / Fold change vs veh, SNORA58 / RFU, C1orf63 / Fold change vs veh, C1orf63 / RFU, LRRFIP1 / Fold change vs veh, LRRFIP1 / RFU, NDUFAF7 / Fold change vs veh, NDUFAF7 / RFU, SLC12A2 / Fold change vs veh, SLC12A2 / RFU, IBTK / Fold change vs veh, IBTK / RFU, ESF1 / Fold change vs veh, ESF1 / Fold change vs veh, TMEM50B / RFU, TAOK1 / Fold change vs veh, TAOK1 / RFU, ACBD3 / Fold change vs veh, ACBD3 / RFU, TMA16 / Fold change vs veh, TMA16 / RFU, RWDD3 / Fold change vs veh, RWDD3 / RFU, BCAT1 / Fold change vs veh, BCAT1 / RFU, EDEM3 / Fold change vs veh, EDEM3 / RFU, TMEM33 / Fold change vs veh, TMEM33 / RFU, WDR75 / Fold change vs veh, WDR75 / RFU, AHCTF1 / Fold change vs veh, AHCTF1 / RFU, TFRC / Fold change vs veh, TFRC / RFU, ZDHHC17 / Fold change vs veh, ZDHHC17 / RFU, NOM1 / Fold change vs veh, NOM1 / RFU, ARL8B / Fold change vs veh, ARL8B / RFU, ZBTB11 / Fold change vs veh, ZBTB11 / RFU, TAMM41 / Fold change vs veh, TAMM41 / RFU, KIAA1704 /// LOC100996395 / Fold change vs veh, KIAA1704 /// LOC100996395 / RFU, ING1 / Fold change vs veh, ING1 / RFU, TRMT61B / Fold change vs veh, TRMT61B / RFU, FUBP3 / Fold change vs veh, FUBP3 / RFU, TP53 / Fold change vs veh, TP53 / RFU, TNKS2 / Fold change vs veh, TNKS2 / RFU, ZFP14 / Fold change vs veh, ZFP14 / RFU, ACTR2 / Fold change vs veh, ACTR2 / RFU, PPP3R1 / Fold change vs veh, PPP3R1 / RFU, PIK3R1 / Fold change vs veh, PIK3R1 / RFU, HNRNPA1 / Fold change vs veh, HNRNPA1 / RFU, RNF170 / Fold change vs veh, RNF170 / RFU, ZNF28 / Fold change vs veh, ZNF28 / RFU, RNGTT / Fold change vs veh, RNGTT / RFU, OGT / Fold change vs veh, OGT / RFU, BRD1 / Fold change vs veh, BRD1 / RFU, MARS / Fold change vs veh, MARS / RFU, ZNF655 / Fold change vs veh, ZNF655 / RFU, FAHD1 / Fold change vs veh, FAHD1 / RFU, BDP1 / Fold change vs veh, BDP1 / RFU, LRRCC1 / Fold change vs veh, LRRCC1 / RFU, ARID1A / Fold change vs veh, ARID1A / RFU, ZNF146 / Fold change vs veh, ZNF146 / RFU, ZNF330 / Fold change vs veh, ZNF330 / RFU, GPN3 / Fold change vs veh, GPN3 / RFU, C9orf123 / Fold change vs veh, C9orf123 / RFU, N4BP2L2 / Fold change vs veh, N4BP2L2 / RFU, ARFIP1 / Fold change vs veh, ARFIP1 / RFU, FAM179B / Fold change vs veh, FAM179B / RFU, BCL10 / Fold change vs veh, BCL10 / RFU, UHRF1BP1L / Fold change vs veh, UHRF1BP1L / RFU, BET1 / Fold change vs veh, BET1 / RFU, CNOT2 / Fold change vs veh, CNOT2 / RFU, ZNF268 / Fold change vs veh, ZNF268 / Fold change vs veh, ZNF507 / RFU, DGCR2 / Fold change vs veh, DGCR2 / RFU, WDSUB1 / Fold change vs veh, WDSUB1 / Fold change vs veh, HSP90B1 /// MIR3652 / RFU, ADSS / Fold change vs veh, ADSS / RFU, GK / Fold change vs veh, GK / RFU, ZNF148 / Fold change vs veh, ZNF148 / RFU, TAF9 / Fold change vs veh, TAF9 / RFU, SLC1A5 / Fold change vs veh, SLC1A5 / RFU, SLMO2 / Fold change vs veh, SLMO2 / RFU, ABCC4 / Fold change vs veh, ABCC4 / RFU, LOC101060439 /// RAP1B / Fold change vs veh, LOC101060439 /// RAP1B / RFU, RFX7 / Fold change vs veh, RFX7 / RFU, GTPBP10 / Fold change vs veh, GTPBP10 / RFU, CNEP1R1 / Fold change vs veh, CNEP1R1 / RFU, BIVM-ERCC5 /// ERCC5 / Fold change vs veh, BIVM-ERCC5 /// ERCC5 / RFU, ILF3 / Fold change vs veh, ILF3 / RFU 11762660_at / Fold change /veh 11762660_at / RFU VCAN (11757783_s_at) / Fold change /veh VCAN (11757783_s_at) / RFU DDX43 (11728927_at) / Fold change /veh DDX43 (11728927_at) / RFU KRT8 (11758188_x_at) / Fold change /veh KRT8 (11758188_x_at) / RFU NKD1 (11759106_at) / Fold change /veh NKD1 (11759106_at) / RFU SRD5A1 (11742802_a_at) / Fold change /veh SRD5A1 (11742802_a_at) / RFU TPSAB1 /// TPSB2 (11721975_s_at) / Fold change /veh TPSAB1 /// TPSB2 (11721975_s_at) / RFU GSTM3 (11746129_a_at) / Fold change /veh GSTM3 (11746129_a_at) / RFU IL23R (11737362_x_at) / Fold change /veh IL23R (11737362_x_at) / RFU TMEM51 (11727254_a_at) / Fold change /veh TMEM51 (11727254_a_at) / RFU PIWIL2 (11732686_x_at) / Fold change /veh PIWIL2 (11732686_x_at) / RFU ORM1 (11744905_x_at) / Fold change /veh ORM1 (11744905_x_at) / RFU CCDC152 (11743942_at) / Fold change /veh CCDC152 (11743942_at) / RFU ECM1 (11717891_a_at) / Fold change /veh ECM1 (11717891_a_at) / RFU IL23R (11748794_a_at) / Fold change /veh IL23R (11748794_a_at) / RFU TNFAIP8L3 (11732012_x_at) / Fold change /veh TNFAIP8L3 (11732012_x_at) / RFU MBOAT4 (11741988_at) / Fold change /veh MBOAT4 (11741988_at) / RFU 11764193_at / Fold change /veh 11764193_at / RFU TMEM53 (11763286_at) / Fold change /veh TMEM53 (11763286_at) / RFU MAGEB2 (11727129_at) / Fold change /veh MAGEB2 (11727129_at) / RFU TMEM200A (11744735_a_at) / Fold change /veh TMEM200A (11744735_a_at) / RFU CCDC152 (11751479_a_at) / Fold change /veh CCDC152 (11751479_a_at) / RFU FAM211A (11726209_a_at) / Fold change /veh FAM211A (11726209_a_at) / RFU RGS16 (11746705_a_at) / Fold change /veh RGS16 (11746705_a_at) / RFU VCAN (11755009_s_at) / Fold change /veh VCAN (11755009_s_at) / RFU RHOB (11743442_s_at) / Fold change /veh RHOB (11743442_s_at) / RFU RGS16 (11720943_a_at) / Fold change /veh RGS16 (11720943_a_at) / RFU RGS16 (11720944_at) / Fold change /veh RGS16 (11720944_at) / RFU, VPS4B / Fold change vs veh, VPS4B / RFU, CREB1 / Fold change vs veh, CREB1 / RFU, DNAJC13 / Fold change vs veh, DNAJC13 / RFU, GNAQ / Fold change vs veh, GNAQ / RFU, CDK5R1 / Fold change vs veh, CDK5R1 / RFU, ZRANB3 / Fold change vs veh, ZRANB3 / RFU, CUL4A / Fold change vs veh, CUL4A / RFU, CCNY / Fold change vs veh, CCNY / RFU, UFL1 / Fold change vs veh, UFL1 / RFU, COG3 / Fold change vs veh, COG3 / RFU, DIAPH2 / Fold change vs veh, DIAPH2 / RFU, SKA2 / Fold change vs veh, SKA2 / RFU, AFF3 / Fold change vs veh, AFF3 / RFU, LMF1 / Fold change vs veh, LMF1 / RFU, IPO11 / Fold change vs veh, IPO11 / RFU, DFFB / Fold change vs veh, DFFB / RFU, FOXP1 / Fold change vs veh, FOXP1 / RFU, CARD8 / Fold change vs veh, CARD8 / RFU, STRN3 / Fold change vs veh, STRN3 / RFU, ADK / Fold change vs veh, ADK / RFU, RASSF2 / Fold change vs veh, RASSF2 / RFU, WIPF1 / Fold change vs veh, WIPF1 / RFU, LARP1B / Fold change vs veh, LARP1B / RFU, RASA1 / Fold change vs veh, RASA1 / RFU, RB1 / Fold change vs veh, RB1 / RFU, PPFIA1 / Fold change vs veh, PPFIA1 / RFU, MAT2A / Fold change vs veh, MAT2A / RFU, CCT5 / Fold change vs veh, CCT5 / RFU, WDR92 / Fold change vs veh, WDR92 / RFU, CUX1 / Fold change vs veh, CUX1 / RFU, TTC7A / Fold change vs veh, TTC7A / RFU, TMEM135 / Fold change vs veh, TMEM135 / RFU, DEPTOR / Fold change vs veh, DEPTOR / RFU, CPM / Fold change vs veh, CPM / RFU, DNAJB6 / Fold change vs veh, DNAJB6 / RFU, CACNA2D3 / Fold change vs veh, CACNA2D3 / RFU, DTX4 / Fold change vs veh, DTX4 / RFU, TFCP2 / Fold change vs veh, TFCP2 / RFU, GMCL1 /// GMCL1P1 / Fold change vs veh, GMCL1 /// GMCL1P1 / RFU, AEBP2 / Fold change vs veh, AEBP2 / RFU, SNHG1 /// SNORD22 /// SNORD25 /// SNORD26 /// SNORD27 /// SNORD28 /// SNORD29 /// SNORD31 / Fold change vs veh, SNHG1 /// SNORD22 /// SNORD25 /// SNORD26 /// SNORD27 /// SNORD28 /// SNORD29 /// SNORD31 / Fold change (Aza/veh), C12orf56 (ProbeSet 11735607_a_at) / Fold change (ACY-1035/veh), C12orf56 (ProbeSet 11735607_a_at) / Fold change (Aza/veh), FGFR1OP (ProbeSet 11751329_s_at) / Fold change (ACY-1035/veh), FGFR1OP (ProbeSet 11751329_s_at) / Fold change (Aza/veh), VPS36 (ProbeSet 11739960_a_at) / Fold change (ACY-1035/veh), VPS36 (ProbeSet 11739960_a_at) / RFU SYPL1 (11715823_x_at) / Fold change /veh SYPL1 (11715823_x_at) / RFU IGFBP7 (11715501_s_at) / Fold change /veh IGFBP7 (11715501_s_at) / RFU REEP3 (11722064_at) / Fold change /veh REEP3 (11722064_at) / RFU IGLL1 (11728026_x_at) / Fold change /veh IGLL1 (11728026_x_at): dose or concentration left out as unconfirmed
Conditions: ProbeSet 11718701_a_at; LIST B

Nc1ncn([C@@H]2O[C@H](CO)[C@@H](O)[C@H]2O)c(=O)n1 [azacitidine]
RFU, ARFIP1: 68.44 RFU

From PMC5218480 (PLoS ONE, 2017)
